± gives the expanded uncertainty stated by the source.
Details: 298.15 K, 101.33 kPa, Liquid; for viscosity: Capillary tube (Ostwald / Ubbelohde) method; for speed of sound: Sing-around technique in a fixed-path interferometer; for mass density: Vibrating tube method

Row | Compound | viscosity [mPa·s] | speed of sound [m/s] | mass density [kg/m3]
1 | CCCCCCCCCCO [decan-1-ol] | 11.19 ± 0.062 | 1379.8 ± 0.9 | 826.47 ± 0.14
2 | NCCN [ethane-1,2-diamine] | 1.405 ± 0.012 | 1671.6 ± 1.3 | 892.389 ± 0.23
3 | CCCCCCO [hexan-1-ol] | 4.439 ± 0.042 | 1303.2 ± 1.7 | 815.265 ± 0.41
4 | CCCCCCCCO [octan-1-ol] | 7.143 ± 0.041 | 1347.5 ± 0.9 | 821.794 ± 0.14

— the NIST ThermoML archive (doi:10.1016/j.jct.2012.01.022)
